Results published in patent US9988430B2, “Stable GLP-1 based GLP-1/glucagon receptor co-agonists” (Novo Nordisk A/S, priority 2014, dated 2018).
pIC50: −log10 of the molar value. *1 amine or outer side, *2 acyl side, *3 side chain or, on linkers, in order; H or OH if unused. Where a SMILES comes first, the peptide text is derived from it. Side-chain parts run from the residue outwards. [ ]: non-standard residue; d: D form. The star is where a group is joined. C18 diacid = O=C(O)CCCCCCCCCCCCCCCCC(=O)*; γGlu = O=C(O)[C@H](CCC(=O)[*:2])N[*:1]; Desaminohistidyl = O=C(CCc1c[nH]cn1)*; AEEA = NCCOCCOCC(=O)O; Aib = CC(C)(N)C(=O)O

Each compound was assayed against T1, human glucagon receptor (Homo sapiens, UniProt P47871) (assay: Assay (II)(b): glucagon receptor binding, [125I]-glucagon displacement, SPA on BHK membranes). Conditions: displacement of [125I]-glucagon, membranes with human glucagon receptor; read-out: IC50 GlucagonR.
T1 construct: expressed in transfected cells; host or cells: membranes of BHK cells, clone BHK hGCGR A3*25
T1 sequence (P47871 26-477): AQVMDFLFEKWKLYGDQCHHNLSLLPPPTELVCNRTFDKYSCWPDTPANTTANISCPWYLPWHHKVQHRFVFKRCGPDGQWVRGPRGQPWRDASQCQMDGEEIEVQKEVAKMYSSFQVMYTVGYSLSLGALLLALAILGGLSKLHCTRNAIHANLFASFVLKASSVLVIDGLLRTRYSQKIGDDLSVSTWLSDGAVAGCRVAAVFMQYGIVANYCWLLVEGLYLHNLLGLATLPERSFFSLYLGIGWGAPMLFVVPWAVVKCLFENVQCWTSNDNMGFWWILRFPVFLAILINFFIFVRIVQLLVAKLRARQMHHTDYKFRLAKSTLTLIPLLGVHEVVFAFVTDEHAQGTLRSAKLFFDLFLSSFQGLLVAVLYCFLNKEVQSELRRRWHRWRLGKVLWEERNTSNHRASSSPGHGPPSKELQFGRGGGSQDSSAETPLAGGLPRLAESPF
Description: Assay (II): GLP-1 and Glucagon Receptor Binding The purpose of this assay is to test the in vitro receptor binding activity of the GLP-1 derivatives of the invention. (b) Glucagon Receptor Binding The glucagon receptor (glucagonR) binding activity is a measure of affinity of a derivative for the human glucagon receptor. The glucagon receptor binding of each derivative were determined with competitive binding, displacing [^125I]-glucagon bound to glucagon receptors expressed in cell membranes associated with wheat germ agglutinin (WGA) scintillation proximity assay (SPA) beads. Each derivative was added in a series of concentrations to isolated membranes comprising the human glucagon receptor and displacement of the labelled ligand was monitored. The receptor binding was reported as the concentration at which half of the labelled ligand is displaced from the receptor, the IC^50 value. The following chemicals were used in the assay: DMEM w Glutamax (Gibco 61965-026), Pen/strep (Invitrogen 15140-122), G418 (Invitrogen 10131-027), Versene (Gibco 15040), 1 M Hepes (Gibco 15630), PBS (Invitrogen 14190-094), fetal calf serum (Invitrogen 16140-071), MgCl2 (Merck 1.05832.1000), EDTA (Invitrogen 15575-038), CaCl2 (Sigma, C5080), Tween 20 (Amresco 0850C335), ovalbumin (Sigma A5503), SPA particles (wheat germ agglutinin (WGA) SPA beads, Perkin Elmer RPNQ0001), [125I]-glucagon (produced in-house), OptiPlate™-96 (Packard 6005290). HME buffer consisted of 25 mM HEPES, 2 mM MgCl2 and 1 mM EDTA, and pH was adjusted to 7.4. Assay buffer consisted of 50 mM HEPES supplemented with 5 mM MgCl2, 1 mM CaCl2, 0.02% Tween 20 and 0.1% Ovalbumin, and pH was adjusted to 7.4. The cells used in this assay (clone BHK hGCGR A3*25) were BHK cells stable transfected with an expression plasmid comprising the cDNA encoding the human glucagon receptor. The cells were grown at 5% CO2 in DMEM, 10% fetal calf serum, 1% Pen/Strep (Penicillin/Streptomycin) and 1.0 mg/ml of the selection marker G418. To make a membrane preparation the cells were grown to approximately 80% confluence. The cells were washed twice in phosphate-buffered saline and harvested. The cells were pelleted using a brief centrifugation and the cell pellet was kept on ice. Lyse the cells by adding approx. 5 ml HME buffer, mix by pipetting and snap freeze in liquid nitrogen. Thaw quickly and add HME buffer to 10 ml. The cell pellet was homogenised with an ULTRA-THURRAX dispersing instrument for 20-30 seconds. The homogenate was centrifuged at 20.000×G, 4° C. for 10 minutes. The pellet was resuspended (homogenised) in 1-2 ml HME buffer. The protein concentration was determined. The membranes were aliquoted and snapfrozen in liquid nitrogen and stored at minus 80° C. • 1. For the receptor binding assay 50 μl of the assay buffer was added to each well of an assay plate. • 2. Test compounds were serially diluted to give the following concentrations: 8×10EE-7 M, 8×10EE-8 M, 8×10EE-9 M, 8×10EE-10 M, 8×10EE-11 M, 8×10EE-12 M and 8×10EE-13 M. Twenty-five μl were added to appropriate wells in the assay plate. • 3. Cell membrane aliquots were thawed and diluted to their working concentration. Fifty μl were added to each well in the assay plate. • 4. WGA SPA beads were suspended in assay buffer at 20 mg/ml. The suspension was diluted to 10 mg/ml in assay buffer just prior to addition to the assay plate. Fifty μl were added to each well in the assay plate. • 5. The incubation was started by adding 25 μl of 480 pM solution of [125I]-glucagon to each well of the assay plate. A 25 μl aliquot was reserved for measuring total counts/well. • 6. The assay plate was incubated for 2 h at 25° C. • 7. The assay plate was centrifuged for 10 min at 1500 rpm. • 8. The assay plate was read in a Perkin Elmer TopCount NXT instrument. Calculations The data from the TopCount instrument were transferred to GraphPad Prism software. The software averaged the values for the replicates and performed a non-linear regression. […]

pIC50 | Structure (SMILES)
8.37 | CC[C@H](C)[C@H](NC(=O)[C@H](Cc1ccccc1)NC(=O)[C@H](CCC(=O)O)NC(=O)[C@H](CCCNC(=N)N)NC(=O)[C@H](C)NC(=O)[C@H](C)NC(=O)[C@H](CCC(N)=O)NC(=O)[C@H](CCC(=O)O)NC(=O)[C@H](CCC(=O)O)NC(=O)[C@H](CC(C)C)NC(=O)[C@H](Cc1ccc(O)cc1)NC(=O)[C@H](CCCCN)NC(=O)[C@H](CO)NC(=O)[C@@H](NC(=O)[C@H](CC(=O)O)NC(=O)[C@H](CO)NC(=O)[C@@H](NC(=O)[C@H](Cc1ccccc1)NC(=O)[C@@H](NC(=O)CNC(=O)[C@H](Cc1c[nH]cn1)NC(=O)C(C)(C)NC(=O)CCc1c[nH]cn1)[C@@H](C)O)[C@@H](C)O)C(C)C)C(=O)N[C@@H](C)C(=O)N[C@@H](Cc1c[nH]c2ccccc12)C(=O)N[C@@H](CC(C)C)C(=O)N[C@@H](CC(C)C)C(=O)N[C@@H](CCCCNC(=O)CNC(=O)[C@H](CO)NC(=O)CC[C@H](NC(=O)CC[C@H](NC(=O)CCCCCCCCCCCCCCCCC(=O)O)C(=O)O)C(=O)O)C(=O)N[C@H](C(N)=O)[C@@H](C)O [Example 4, N^ε34-[2-[[(2S)-2-[[(4S)-4-carboxy-4-[[(4S)-4-carboxy-4-(17-carboxyheptadecanoylamino)butanoyl]amino]butanoyl]amino]-3-hydroxypropanoyl]amino]acetyl]-[Imp7,Aib8,His9,Lys18,Glu22,Arg26,Leu33,Thr35]-GLP-1-(7-35)-peptide amide] (Desaminohistidyl-[Aib]HGTFTSDVSKYLEEQAAREFIAWLLK([Gly-Ser-γGlu-γGlu-C18 diacid])T-NH2)
8.37 | CC[C@H](C)[C@H](NC(=O)[C@H](Cc1ccccc1)NC(=O)[C@H](CCC(=O)O)NC(=O)[C@H](CCCNC(=N)N)NC(=O)[C@H](C)NC(=O)[C@H](C)NC(=O)[C@H](CCC(N)=O)NC(=O)[C@H](CCC(=O)O)NC(=O)[C@H](CCC(=O)O)NC(=O)[C@H](CC(C)C)NC(=O)[C@H](Cc1ccc(O)cc1)NC(=O)[C@H](CCCCN)NC(=O)[C@H](CO)NC(=O)[C@@H](NC(=O)[C@H](CC(=O)O)NC(=O)[C@H](CO)NC(=O)[C@@H](NC(=O)[C@H](Cc1ccccc1)NC(=O)[C@@H](NC(=O)CNC(=O)[C@H](Cc1c[nH]cn1)NC(=O)C(C)(C)NC(=O)CCc1c[nH]cn1)[C@@H](C)O)[C@@H](C)O)C(C)C)C(=O)N[C@@H](C)C(=O)N[C@@H](Cc1c[nH]c2ccccc12)C(=O)N[C@@H](CC(C)C)C(=O)N[C@@H](CC(C)C)C(=O)N[C@@H](CCCCNC(=O)COCCOCCNC(=O)COCCOCCNC(=O)CC[C@H](NC(=O)CC[C@H](NC(=O)CCCCCCCCCCCCCCCCC(=O)O)C(=O)O)C(=O)O)C(=O)N[C@H](C(N)=O)[C@@H](C)O [Example 5, N^ε34-[2-[2-[2-[[2-[2-[2-[[(4S)-4-carboxy-4-[[(4S)-4-carboxy-4-(17-carboxyheptadecanoylamino)butanoyl]amino]butanoyl]amino]ethoxy]ethoxy]acetyl]amino]ethoxy]ethoxy]acetyl]-[Imp7,Aib8,His9,Lys18,Glu22,Arg26,Leu33,Thr35]-GLP-1-(7-35)-peptide amide] (Desaminohistidyl-[Aib]HGTFTSDVSKYLEEQAAREFIAWLLK([AEEA-AEEA-γGlu-γGlu-C18 diacid])T-NH2)
8.43 | CC[C@H](C)[C@H](NC(=O)[C@H](Cc1ccccc1)NC(=O)[C@H](CCC(=O)O)NC(=O)[C@H](CCCNC(=N)N)NC(=O)[C@H](C)NC(=O)[C@H](C)NC(=O)[C@H](CCCNC(=N)N)NC(=O)[C@H](C)NC(=O)[C@H](CCC(=O)O)NC(=O)[C@H](CC(C)C)NC(=O)[C@H](Cc1ccc(O)cc1)NC(=O)[C@H](CCCCN)NC(=O)[C@H](CO)NC(=O)[C@@H](NC(=O)[C@H](CC(=O)O)NC(=O)[C@H](CO)NC(=O)[C@@H](NC(=O)[C@H](Cc1ccccc1)NC(=O)[C@@H](NC(=O)CNC(=O)[C@H](Cc1c[nH]cn1)NC(=O)C(C)(C)NC(=O)CCc1c[nH]cn1)[C@@H](C)O)[C@@H](C)O)C(C)C)C(=O)N[C@@H](C)C(=O)N[C@@H](Cc1c[nH]c2ccccc12)C(=O)N[C@@H](CC(C)C)C(=O)N[C@@H](CC(C)C)C(=O)N[C@@H](CCCCNC(=O)CC[C@H](NC(=O)COCCOCCNC(=O)COCCOCCNC(=O)CC[C@H](NC(=O)CC[C@H](NC(=O)CCCCCCCCCCCCCCCCC(=O)O)C(=O)O)C(=O)O)C(=O)O)C(=O)NCC(=O)NCC(=O)NCC(=O)O [Example 31, N^ε34-[(4S)-4-carboxy-4-[[2-[2-[2-[[2-[2-[2-[[(4S)-4-carboxy-4-[[(4S)-4-carboxy-4-(17-carboxyheptadecanoylamino)butanoyl]amino]butanoyl]amino]ethoxy]ethoxy]acetyl]amino]ethoxy]ethoxy]acetyl]amino]butanoyl]-[Imp7,Aib8,His9,Lys18,Ala22,Arg23,Arg26,Leu33,Gly36]-GLP-1-(7-37)-peptide] (Desaminohistidyl-[Aib]HGTFTSDVSKYLEARAAREFIAWLLK([γGlu-AEEA-AEEA-γGlu-γGlu-C18 diacid])GGG-OH)
7.73 | CC[C@H](C)[C@H](NC(=O)[C@H](Cc1ccccc1)NC(=O)[C@H](CCC(=O)O)NC(=O)[C@H](CCCNC(=N)N)NC(=O)[C@H](C)NC(=O)[C@H](C)NC(=O)[C@H](CCCNC(=N)N)NC(=O)CNC(=O)[C@H](CCC(=O)O)NC(=O)[C@H](CC(C)C)NC(=O)[C@H](Cc1ccc(O)cc1)NC(=O)[C@H](CCCNC(=N)N)NC(=O)[C@H](CO)NC(=O)[C@@H](NC(=O)[C@H](CC(=O)O)NC(=O)[C@H](CO)NC(=O)[C@@H](NC(=O)[C@H](Cc1ccccc1)NC(=O)[C@@H](NC(=O)CNC(=O)[C@H](Cc1c[nH]cn1)NC(=O)C(C)(C)NC(=O)CCc1c[nH]cn1)[C@@H](C)O)[C@@H](C)O)C(C)C)C(=O)N[C@@H](C)C(=O)N[C@@H](Cc1c[nH]c2ccccc12)C(=O)N[C@@H](CC(C)C)C(=O)N[C@@H](CC(C)C)C(=O)N[C@@H](CCCCNC(=O)CC[C@H](NC(=O)CC[C@H](NC(=O)COCCOCCNC(=O)CC[C@H](NC(=O)CC[C@H](NC(=O)CCCCCCCCCCCCCCCCC(=O)O)C(=O)O)C(=O)O)C(=O)O)C(=O)O)C(=O)NCC(=O)N[C@@H](C)C(=O)NCC(=O)O [Example 35, N^ε34-[(4S)-4-carboxy-4-[[(4S)-4-carboxy-4-[[2-[2-[2-[[(4S)-4-carboxy-4-[[(4S)-4-carboxy-4-(17-carboxyheptadecanoylamino)butanoyl]amino]butanoyl]amino]ethoxy]ethoxy]acetyl]amino]butanoyl]amino]butanoyl]-[Imp7,Aib8,His9,Arg18,Arg23,Arg26,Leu33,Ala36]-GLP-1-(7-37)-peptide] (Desaminohistidyl-[Aib]HGTFTSDVSRYLEGRAAREFIAWLLK([γGlu-γGlu-AEEA-γGlu-γGlu-C18 diacid])GAG-OH)
